Data set [1] is described as follows: Light resistance of PMMA polymer film (remaining amount after metal halide lamp exposure). Format: physicochemical. The settings on record: 50-μm PMMA film on glass, 0.2 mass % compound in coating solution, illuminance 90 mW/cm^2, 63° C., humidity 50%, 400 hours after exposure, transmittance at maximum absorption wavelength. The protocol:
A binder solution was prepared by dissolving 22 mass % of a PMMA resin (“[…] BR-80”, trade name; product of Mitsubishi Rayon) in methylene chloride. A coating solution was then prepared by dissolving 0.2 mass % of Exemplified compound (1) in the resulting binder solution. Using glass as a base material, the resulting coating solution was applied thereto with a 200 μm blade and dried at 100° C. for 10 minutes into a 50-μm thick coating to prepare a film. […] The absorbance of the film was measured with a spectrophotometer “UV-3600” (trade name; product of Shimadzu Corp). The film was exposed to light of a metal halide lamp (“Eye super UV tester”, trade name; product of Iwasaki Electric) under the conditions of illuminance of 90 mW/cm^2, temperature of 63° C., and humidity of 50%. The remaining amount of each compound 400 hours after exposure was measured. The remaining amount was computed in accordance with the following equation: Remaining amount(%)=100×(100-(transmittance after exposure))/(100-(transmittance before exposure)) The transmittance is a value measured at the maximum absorption wavelength of each compound.

Data set [2] in a line: Measurement of pKa (perchloric acid titration, absorption spectrum). The format is physicochemical. To be noted: in acetonitrile, 70% perchloric acid (acetic acid as solvent) added dropwise; ratio of triazine-free compound and proton adduct from absorbance at λmax. The protocol:
Exemplified compound (1) was dissolved in acetonitrile to give its absorption coefficient of 1. […] At that time, a solution absorption spectrum was measured and a ratio of a triazine-free compound and a proton adduct at each pH was computed from the absorbance at λmax. The value of pKa was determined from a point at which the ratio became 1. […] The absorption spectrum was measured using a spectrophotometer “UV-3600” (trade name; product of Shimadzu Corp), while pH was measured using a pH meter “H[…]” (trade name; product of Toa Denpa Kogyo).

SMILES strings stand for the structures.

The results in this text go back to US20100311877A1, “NOVEL TRIAZINE DERIVATIVE, ULTRAVIOLET ABSORBER, AND RESIN COMPOSITION” (FUJIFILM Corporation, priority 2009, published 2010).

For the compound `CCCCCCCCOc1ccc(-c2nc(-c3ccc(C)cc3C)nc(-c3ccc(C)cc3C)n2)c(O)c1` [Comparative compound B], the “Remaining amount (%)” value in data set [1] was 21%. Also, in data set [2], the pKa is -4.4.

Consider `CCCCCCOc1ccc(-c2nc(-c3ccccc3)nc(-c3ccccc3)n2)c(O)c1` [Comparative compound A], for which, in data set [1], the “Remaining amount (%)” value is 63%. In data set [2], the pKa was -4.9.
